In brackets after ≈: the same amount, converted by molar mass. Entries after “also recorded” stand apart in the source; their conditions may differ. Read-outs that look alike come from different tables or passages of the source.
Tests used:
Solubility in solvent = format: physicochemical
[1] = test system: methicillin-resistant Staphylococcus aureus (MRSA) K24 strain; experiment: Enhancing action on activity of imipenem by paper disc method; format: cell-based
Experimental: Clinical isolate of methicillin-resistant Staphylococcus aureus (MRSA) K24 strain was used as a test microorganism. After the strain of MRSA K24 was cultured in Mueller-Hinton broth (2.1% w/v) (DIFCO) at 37° C. for 20 hours, the strain was suspended to the concentration corresponding to 0.5 Mc FARAND (about 10^8 CFU/ml) in the same medium. The suspension was smeared on MHA medium (Mueller-Hinton broth 2.1% (w/v), agar 1.5%) and a medium of the same composition containing imipenem (Tienem for Intramuscular Injection, 0.5 g, Banyu Pharmaceutical Co., Ltd., Japan) with a concentration without affecting the growth of test microorganisms, i.e. final concentration of 10 μg/ml. Smearing was performed according to the method of National Committee for Laboratory Standard, the U.S. (NCCLS), by using sterilized cotton-tipped swab (Kawamoto Sangyo Co., Ltd., Japan).

[2] = test system: MRSA (Clinical isolate, the Kitasato Hospital, Japan); experiment: Enhancing action of K04-0144D substance on antibiotic activities, broth microdilution method; format: cell-based, methicillin-resistant Staphylococcus aureus; details: for MIC: Staphylococcus aureus, MRSA
MRSA N315 IR94 HR-1 = experiment: MIC, agar plate dilution method; format: cell-based, methicillin-resistant Staphylococcus aureus; details: Staphylococcus aureus, 20 h
Experimental: (§1) Assay of minimum inhibitory concentration (MIC) was performed according to the agar plate dilution method (Method of Japan Society of Chemotherapy, CHEMOTHERAPY 29, 76-79, 1981).
(§2) Test organisms used were 27 types of microorganisms including clinical isolates of methicillin-resistant Staphylococcus aureus. Each test organism was cultured in Mueller-Hinton broth (2.1% w/v) (DIFCO) at 37° C. for 20 hours, and the cultured cells were suspended to about 10^6 cell counts/ml in the same medium, then was used as the microbial suspension for inoculation. The prepared microbial suspension was smeared by using the microplanter on MHA medium (Mueller-Hinton broth 2.1% (w/v) and agar 1.5%) containing K04-0144A substance, K04-0144B substance or K04-0144C substance, each of which was subjected to two-fold stepwise dilution from 128 μg/ml. After culturing at 37° C. for 20 hours, MIC was determined by macroscopically confirming the growth of microorganisms. Vancomycin, arbekacin and linezolid were used as a comparative control.

MRSA 92-1191 = experiment: MIC, agar plate dilution method; format: cell-based, methicillin-resistant Staphylococcus aureus; details: Staphylococcus aureus; MRSA 92-1191; 37° C., 20 hours; read-out: MIC
Experimental: as §1, §2

MRSA 70 = experiment: MIC, agar plate dilution method; format: cell-based, methicillin-resistant Staphylococcus aureus; details: Staphylococcus aureus; MRSA 70; 37° C., 20 hours; read-out: MIC
Experimental: as §1, §2

S. aureus ISP217 = experiment: MIC, agar plate dilution method; format: cell-based; details: Staphylococcus aureus; S. aureus ISP217; 37° C., 20 hours; read-out: MIC
Experimental: as §1, §2

S. aureus ISP447 = experiment: MIC, agar plate dilution method; format: cell-based; details: Staphylococcus aureus; S. aureus ISP447; 37° C., 20 hours; read-out: MIC
Experimental: as §1, §2

S. aureus 8325(pMS97) = experiment: MIC, agar plate dilution method; format: cell-based; details: Staphylococcus aureus, 20 h
Experimental: as §1, §2

M. morganii IID Kono = experiment: MIC, agar plate dilution method; format: cell-based; details: Morganella morganii; M. morganii IID Kono; 37° C., 20 hours; read-out: MIC
Experimental: as §1, §2

E. aerogenes NCTC10006 = experiment: MIC, agar plate dilution method; format: cell-based; details: Klebsiella aerogenes; E. aerogenes NCTC10006; 37° C., 20 hours; read-out: MIC
Experimental: as §1, §2

[3] = test system: E. faecium NTCT12203(VanA); experiment: MIC, agar plate dilution method; format: cell-based; details: Enterococcus faecium; E. faecium NTCT12203(VanA); 37° C., 20 hours; read-out: MIC
Experimental: as §1, §2

A. calcoaceticus IFO2552 = experiment: MIC, agar plate dilution method; format: cell-based; details: Acinetobacter calcoaceticus; A. calcoaceticus IFO2552; 37° C., 20 hours; read-out: MIC
Experimental: as §1, §2

P. vulgaris OX-19 = experiment: MIC, agar plate dilution method; format: cell-based; details: Proteus vulgaris, OX19; P. vulgaris OX-19; 37° C., 20 hours; read-out: MIC
Experimental: as §1, §2

P. aeruginosa 46001 = experiment: MIC, agar plate dilution method; format: cell-based; details: Pseudomonas aeruginosa; P. aeruginosa 46001; 37° C., 20 hours; read-out: MIC
Experimental: as §1, §2

S. aureus Smith = experiment: MIC, agar plate dilution method; format: cell-based; details: Staphylococcus aureus; S. aureus Smith; 37° C., 20 hours; read-out: MIC
Experimental: as §1, §2

E. cloacae IFO13535 = experiment: MIC, agar plate dilution method; format: cell-based; details: Enterobacter cloacae; E. cloacae IFO13535; 37° C., 20 hours; read-out: MIC
Experimental: as §1, §2

K. pneumoniae NCTN9632 = experiment: MIC, agar plate dilution method; format: cell-based; details: Klebsiella pneumoniae; K. pneumoniae NCTN9632; 37° C., 20 hours; read-out: MIC
Experimental: as §1, §2

M. luteus ATCC9341 = experiment: MIC, agar plate dilution method; format: cell-based; details: Micrococcus luteus; M. luteus ATCC9341; 37° C., 20 hours; read-out: MIC
Experimental: as §1, §2

C. freundii ATCC8090 = experiment: MIC, agar plate dilution method; format: cell-based; details: Citrobacter freundii; C. freundii ATCC8090; 37° C., 20 hours; read-out: MIC
Experimental: as §1, §2

S. marcescens IFO12648 = experiment: MIC, agar plate dilution method; format: cell-based; details: Serratia marcescens; S. marcescens IFO12648; 37° C., 20 hours; read-out: MIC
Experimental: as §1, §2

P. aeruginosa E-2 = experiment: MIC, agar plate dilution method; format: cell-based; details: Pseudomonas aeruginosa, E2; P. aeruginosa E-2; 37° C., 20 hours; read-out: MIC
Experimental: as §1, §2

P. mirabilis IFO3849 = experiment: MIC, agar plate dilution method; format: cell-based; details: Proteus mirabilis; P. mirabilis IFO3849; 37° C., 20 hours; read-out: MIC
Experimental: as §1, §2

S. aureus FDA209P = experiment: MIC, agar plate dilution method; format: cell-based; details: Staphylococcus aureus; S. aureus FDA209P; 37° C., 20 hours; read-out: MIC
Experimental: as §1, §2

[4] = test system: E. facecalis NTCT12201(VanA); experiment: MIC, agar plate dilution method; format: cell-based; details: E. facecalis NTCT12201(VanA); 37° C., 20 hours; read-out: MIC
Experimental: as §1, §2

E. coli NIHJ JC-2 = experiment: MIC, agar plate dilution method; format: cell-based; details: Escherichia coli, NIHJJC2; E. coli NIHJ JC-2; 37° C., 20 hours; read-out: MIC
Experimental: as §1, §2

S. epidermidis IFO12648 = experiment: MIC, agar plate dilution method; format: cell-based; details: Staphylococcus epidermidis; S. epidermidis IFO12648; 37° C., 20 hours; read-out: MIC
Experimental: as §1, §2

E. faecalis ATCC21212 = experiment: MIC, agar plate dilution method; format: cell-based; details: Enterococcus faecalis; E. faecalis ATCC21212; 37° C., 20 hours; read-out: MIC
Experimental: as §1, §2

S. aureus 8325(pEP2104) = experiment: MIC, agar plate dilution method; format: cell-based; details: Staphylococcus aureus, 20 h
Experimental: as §1, §2

MRSA N315 IR94 = experiment: MIC, agar plate dilution method; format: cell-based, methicillin-resistant Staphylococcus aureus; details: Staphylococcus aureus, 20 h
Experimental: as §1, §2

C=C/C(C)=C/CC1C2(C)CCCC(C)(C)C2CC(O)C1(O)CSCC(NC(C)=O)C(=O)O (centres unmarked) [K04-0144D substance]
Solubility in solvent (Solubility in solvent): Soluble in methanol and water acetonitrile; also recorded: Insoluble in chloroform and hexane ethyl acetate
Diameter of inhibition ring ([1]; 1 μg/6 mm disc, Imipenem (10 μg/ml) (+)): 15 mm
Diameter of inhibition ring ([1]; 1 μg/6 mm disc, Imipenem (10 μg/ml) (−)): did not exhibit an inhibitory ring
Diameter of inhibition ring ([1]; 10 μg/6 mm disc, Imipenem (10 μg/ml) (+)): 26 mm
Diameter of inhibition ring ([1]; 10 μg/6 mm disc, Imipenem (10 μg/ml) (−)): 14 mm

[H]/N=C(/N)N[C@H]1[C@H](O)[C@@H](O)[C@H](O[C@@H]2O[C@@H](C)[C@](O)(C=O)[C@H]2O[C@@H]2O[C@@H](CO)[C@H](O)[C@@H](O)[C@@H]2NC)[C@@H](N/C(N)=N\[H])[C@@H]1O [Streptomycin, streptomycin]
enhancing action of K04-0144D substance on the antibiotic's activity ([2]; K04-0144D substance 16 μg/ml): no enhancing action
Ratio (−/+K04-0144D) ([2]; MIC alone / MIC with K04-0144D substance 16 μg/ml): 2
MIC ([2]; antibiotic alone, without K04-0144D substance, read-out: Minimum Inhibitory Concentration (−)): 2 µg/mL
MIC ([2]; combined use with K04-0144D substance 16 μg/ml, read-out: Minimum Inhibitory Concentration (+)): 1 µg/mL

NCC[C@H](O)C(=O)N[C@@H]1C[C@H](N)[C@@H](O[C@H]2O[C@H](CN)CC[C@H]2N)[C@H](O)[C@H]1O[C@H]1O[C@H](CO)[C@@H](O)[C@H](N)[C@H]1O [arbekacin, reference compound]
MIC (MRSA N315 IR94 HR-1): 1 µg/mL (≈ 1.81 µM)
MIC (MRSA 92-1191): 0.5 µg/mL (≈ 0.905 µM)
MIC (MRSA 70): 0.5 µg/mL (≈ 0.905 µM)
MIC (S. aureus ISP217): ≤ 0.25 µg/mL
MIC (S. aureus ISP447): ≤ 0.25 µg/mL
MIC (S. aureus 8325(pMS97)): ≤ 0.25 µg/mL
MIC (M. morganii IID Kono): 0.5 µg/mL (≈ 0.905 µM)
MIC (E. aerogenes NCTC10006): ≤ 0.25 µg/mL
MIC [3]: 8 µg/mL (≈ 14.5 µM)
MIC (A. calcoaceticus IFO2552): ≤ 0.25 µg/mL
MIC (P. vulgaris OX-19): 2 µg/mL (≈ 3.62 µM)
MIC (P. aeruginosa 46001): 1 µg/mL (≈ 1.81 µM)
MIC (S. aureus Smith): ≤ 0.25 µg/mL
MIC (E. cloacae IFO13535): 0.5 µg/mL (≈ 0.905 µM)
MIC (K. pneumoniae NCTN9632): ≤ 0.25 µg/mL
MIC (M. luteus ATCC9341): ≤ 0.25 µg/mL
MIC (C. freundii ATCC8090): 0.5 µg/mL (≈ 0.905 µM)
MIC (S. marcescens IFO12648): 1 µg/mL (≈ 1.81 µM)
MIC (P. aeruginosa E-2): 4 µg/mL (≈ 7.24 µM)
MIC (P. mirabilis IFO3849): 2 µg/mL (≈ 3.62 µM)
MIC (S. aureus FDA209P): ≤ 0.25 µg/mL
MIC [4]: > 32 µg/mL
MIC (E. coli NIHJ JC-2): > 32 µg/mL
MIC (S. epidermidis IFO12648): ≤ 0.25 µg/mL
MIC (E. faecalis ATCC21212): > 32 µg/mL
MIC (S. aureus 8325(pEP2104)): ≤ 0.25 µg/mL

CC(=O)NC[C@H]1CN(c2ccc(N3CCOCC3)c(F)c2)C(=O)O1 [linezolid, reference compound]
MIC (MRSA 92-1191): 2 µg/mL (≈ 5.93 µM)
MIC (MRSA 70): 0.5 µg/mL (≈ 1.48 µM)
MIC (MRSA N315 IR94): 1 µg/mL (≈ 2.96 µM)
MIC (S. aureus ISP217): 2 µg/mL (≈ 5.93 µM)
MIC (S. aureus ISP447): 2 µg/mL (≈ 5.93 µM)
MIC (M. morganii IID Kono): > 32 µg/mL
MIC (E. aerogenes NCTC10006): > 32 µg/mL
MIC [3]: 2 µg/mL (≈ 5.93 µM)
MIC (A. calcoaceticus IFO2552): > 32 µg/mL
MIC (P. vulgaris OX-19): 8 µg/mL (≈ 23.7 µM)
MIC (P. aeruginosa 46001): > 32 µg/mL
MIC (S. aureus Smith): 2 µg/mL (≈ 5.93 µM)
MIC (E. cloacae IFO13535): > 32 µg/mL
MIC (K. pneumoniae NCTN9632): > 32 µg/mL
MIC (M. luteus ATCC9341): 2 µg/mL (≈ 5.93 µM)
MIC (C. freundii ATCC8090): > 32 µg/mL
MIC (S. marcescens IFO12648): > 32 µg/mL
MIC (P. aeruginosa E-2): > 32 µg/mL
MIC (P. mirabilis IFO3849): > 32 µg/mL
MIC (S. aureus FDA209P): 1 µg/mL (≈ 2.96 µM)
MIC [4]: 2 µg/mL (≈ 5.93 µM)
MIC (E. coli NIHJ JC-2): > 32 µg/mL
MIC (S. epidermidis IFO12648): 2 µg/mL (≈ 5.93 µM)
MIC (E. faecalis ATCC21212): 2 µg/mL (≈ 5.93 µM)
